Assay results reported in ChEMBL document CHEMBL5131514, “Structure and Mechanism-Guided Design of Dual Serine/Metallo-Carbapenemase Inhibitors” (J Med Chem, 2022).
Values belong to the compound of their own block, whether it stands above or below them.

What was measured:
Bacteria [1] = assay: Inhibition of bacterial beta-lactamase CTX-M-15 at 200 uM CENTA substrate by colorimetric assay relative to control
Bacteria [2] = assay: Inhibition of recombinant bacterial beta-lactamase […] (28 to 270 residues) at 200 uM using CENTA substrate by colorimetric assay relative to control
Bacteria [3] = assay: Inhibition of bacterial beta-lactamase KPC-2 at 200 uM using CENTA substrate by colorimetric assay relative to control
Bacteria [4] = assay: Inhibition of bacterial beta-lactamase AmpC at 200 uM using CENTA substrate by colorimetric assay relative to control
Bacteria [5] = assay: Inhibition of recombinant bacterial beta-lactamase VIM-2 (26 to 266 residues) expressed in Escherichia coli Lemo21(DE3) at 200 uM using CENTA substrate by colorimetric assay relative to control
[6] = Inhibition of recombinant bacterial beta-lactamase VIM-2 MBL (27 to 266 residues) expressed in Escherichia coli Transetta (DE3) using FC-1 as substrate preincubated for 10 mins followed by substrate addition measured every 60 secs by fluorescence based assay; parameters: species or system Bacteria
[7] = Inhibition of recombinant bacterial beta-lactamase TEM-1 SBL (24 to 286 residues) expressed in Escherichia coli Transetta (DE3) using FC-1 as substrate preincubated for 4 hrs followed by substrate addition measured every 60 secs by fluorescence based assay; parameters: species or system Bacteria
[8] = Inhibition of recombinant bacterial beta-lactamase NDM-1 MBL (1 to 270 residues) expressed in Escherichia coli Transetta (DE3) using FC-1 as substrate preincubated for 10 mins followed by substrate addition measured every 60 secs by fluorescence based assay; parameters: species or system Bacteria
[9] = Binding affinity to Pseudomonas aeruginosa beta-lactamase IMP-1 expressed in Escherichia coli Lemo21(DE3) assessed as inhibition constant using nitrocefin as substrate by spectrophotometric assay
[10] = Binding affinity to bacterial beta-lactamase VIM-1 expressed in Escherichia coli BL21 (DE3) assessed as inhibition constant using nitrocefin as substrate by spectrophotometric assay; parameters: species or system Bacteria
[11] = Binding affinity to recombinant full-length bacterial beta-lactamase KPC-2 assessed as inhibition constant using nitrocefin as substrate by spectrophotometric assay; parameters: species or system Bacteria
[12] = Inhibition of bacterial beta-lactamase KPC-2 expressed in Escherichia coli BL21 (DE3) assessed as inhibition constant using nitrocefin as substrate by microplate reader analysis; parameters: species or system Bacteria
[13] = Inhibition of bacterial beta-lactamase NDM-1 (42 to 270 residues) expressed in Escherichia coli BL21 (DE3) assessed as inhibition constant using nitrocefin as substrate by microplate reader analysis; parameters: species or system Bacteria
[14] = Inhibition of bacterial beta-lactamase P99 using nitrocefin as substrate incubated for 10 mins and measured every 10 seconds for 10 mins; parameters: species or system Bacteria
[15] = Inhibition of bacterial beta-lactamase SHV-12 using nitrocefin as substrate incubated for 10 mins and measured every 10 seconds for 10 mins; parameters: species or system Bacteria
[16] = Inhibition of bacterial beta-lactamase IMP-1 using imipenem as substrate incubated for 10 mins followed by substrate addition measured every 30 seconds for 1 hr; parameters: species or system Bacteria
[17] = Inhibition of bacterial beta-lactamase TEM-10 using nitrocefin as substrate incubated for 10 mins and measured every 10 seconds for 10 mins; parameters: species or system Bacteria
[18] = Inhibition of bacterial beta-lactamase CTX-M-15 using nitrocefin as substrate incubated for 10 mins and measured every 10 seconds for 10 mins; parameters: species or system Bacteria
[19] = Inhibition of bacterial beta-lactamase OXA-48 using nitrocefin as substrate incubated for 10 mins and measured every 10 seconds for 10 mins; parameters: species or system Bacteria
[20] = Inhibition of bacterial beta-lactamase KPC-2 using nitrocefin as substrate incubated for 10 mins and measured every 10 seconds for 10 mins; parameters: species or system Bacteria
[21] = Inhibition of bacterial beta-lactamase VIM-1 using nitrocefin as substrate incubated for 10 mins followed by substrate addition measured every 10 seconds for 10 mins; parameters: species or system Bacteria
[22] = Inhibition of bacterial beta-lactamase CTX-M-15 assessed as inhibition constant using cephalothin as substrate by spectrophotometric assay; parameters: species or system Bacteria
[23] = Inhibition of recombinant bacterial beta-lactamase […] (28 to 270 residues) assessed as inhibition constant using imipenem as substrate by spectrophotometric assay; parameters: species or system Bacteria

Compound: O=C(Nc1nnn[nH]1)c1cc(-c2ccccc2)nn1-c1ccccc1
Ki [12]: 44 µM | Ki [13]: 62 µM

Compound: O=C(O)c1c(F)ccc2c1OB(O)[C@@H]1C[C@H]21 [XERUBORBACTAM]
IC50 [14]: 0.022 µM | IC50 [15]: 0.0019 µM | IC50 [16]: 0.61 µM | IC50 [17]: 0.0022 µM | IC50 [18]: 0.0012 µM | IC50 [19]: 0.0011 µM | IC50 [20]: 0.0029 µM | IC50 [21]: 0.014 µM

Compound: O=C(Nc1nnn[nH]1)C(c1ccccc1)[S+]([O-])c1ccccc1 (centres undefined)
Ki [12]: 1570 µM | Ki [13]: 204 µM

Compound: O=C(Nc1nnn[nH]1)c1cc(-c2ccccc2)n(-c2ccccc2)n1
Ki [12]: 239 µM | Ki [13]: 56 µM

Compound: S=C(N/N=C/c1ccccc1)N1CCOCC1
inhibition (Bacteria [1]): 32% | inhibition (Bacteria [2]): 71% | inhibition (Bacteria [3]): 41% | inhibition (Bacteria [4]): 50% | inhibition (Bacteria [5]): 33% | Ki [22]: 50 µM | Ki [23]: 32 µM

Compound: O=C(NC(=S)NNC(=O)c1cccs1)c1ccc(Br)o1
inhibition (Bacteria [1]): 55% | inhibition (Bacteria [2]): 79% | inhibition (Bacteria [3]): 66% | inhibition (Bacteria [4]): 32% | inhibition (Bacteria [5]): 45%

Compound: O=C(Nc1nnn[nH]1)C(Nc1ccccc1)c1ccccc1 (centres undefined)
Ki [12]: 479 µM | Ki [13]: 477 µM

Compound: S=c1[nH]ncn1NCc1ccc2c(c1)OCO2
Ki [9]: 125 µM | Ki [10]: 120 µM | Ki [11]: 138 µM

Compound: CCn1c(S)nnc1-c1nn(C)c(C)c1Cl
inhibition (Bacteria [1]): < 20% | inhibition (Bacteria [2]): 70% | inhibition (Bacteria [3]): < 20% | inhibition (Bacteria [4]): 37% | inhibition (Bacteria [5]): 86%

Continued, in another order:

inhibition (Bacteria [1]): 33% | inhibition (Bacteria [2]): 54% | inhibition (Bacteria [3]): < 20% | inhibition (Bacteria [4]): < 20% | inhibition (Bacteria [5]): 87%
Compound: Sc1nnc(-c2cccnc2)n1CC1CCCO1 (centres undefined)

IC50 [6]: 3.78 µM | IC50 [7]: 1.73 µM | IC50 [8]: 17.1 µM
Compound: O=P(O)(O)C(c1ccc2ccccc2c1-c1ccccn1)P(=O)(O)O

Ki [11]: 158 µM
Compound: Sc1nncn1/N=C/c1ccc(Br)cc1
Ki [9]: 285 µM | Ki [10]: 58 µM

Ki [11]: 263 µM
Compound: CCN(CC)c1ccc(CNn2cn[nH]c2=S)cc1
Ki [9]: 173 µM | Ki [10]: 224 µM

IC50 [6]: 5.58 µM | IC50 [7]: 11.5 µM | IC50 [8]: 15 µM
Compound: O=P(O)(O)C(c1cc2ccccc2n1-c1ncccn1)P(=O)(O)O

inhibition (Bacteria [1]): 49% | inhibition (Bacteria [2]): 62% | inhibition (Bacteria [3]): 46% | inhibition (Bacteria [4]): < 20% | inhibition (Bacteria [5]): 81%
Compound: Sc1nnc(-c2ccco2)n1C1CC1

IC50 [6]: 11.1 µM | IC50 [7]: 68.4 µM | IC50 [8]: 32 µM
Compound: O=P(O)(O)C(c1ccccc1-c1ccccn1)P(=O)(O)O

Ki [11]: 139 µM
Compound: S=c1[nH]ncn1/N=C/c1c[nH]c2ccccc12
Ki [9]: 104 µM | Ki [10]: 95 µM
